{"source": "patent US10307398B2", "about": "“Resuscitation composition and methods of making and using” (Regents of the University of Minnesota, priority 2016, dated 2019)", "key": {"[1]": {"experiment": "solubility of melatonin in excipient solutions", "assay_type": "physicochemical", "conditions": "aqueous with cosolvent or surfactant or cyclodextrin, thermodynamic from solid", "protocol": "A saturated melatonin solution was prepared containing the indicated excipient concentrations and incubated end over end at room temperature for 72 hours. After 72 hours, solutions were filtered through a […] filter and diluted 1:10. Absorption was measured spectrophotometrically at 287 nm (excipient solutions alone were used as blanks)."}, "[2]": {"experiment": "physchem", "protocol": "Assuming formation of 1:1 complex between drug and ligand, the complexation efficiency (CE) can be calculated from the slope of the phase-solubility diagram:\n[formula] where So is the intrinsic substrate solubility and k1:1 stability constant of the complex.\nSolubility Studies. […] An excess amount of MLT was added either to water or PVP solution (concentration ranging from 0.1 to 20% w/v) in polypropylene tubes (protected from light) and incubated with end-over-end rotation at 25° C. until equilibrium was achieved (72 hours). An aliquot was filtered (0.45 μm membrane) and the absorption measured at 270 nm (Epoch microplate spectrophotometer, BioTek, Winooski, Vt.).\nPVP is known to form water soluble or insoluble complexes with various drugs with either enhancement or reduction in solubility."}, "[3]": {"conditions": "cited from earlier work"}, "[4]": {"experiment": "water vapor sorption of BHB", "assay_type": "physicochemical", "conditions": "25° C.", "protocol": "Water vapor sorption. About 5 mg of sample was placed in the quartz sample pan of an automated vapor sorption balance (DVS-1000, Surface Measurement Systems, London, UK), maintained at 25° C. It was dried under dry nitrogen purge (flow rate 200 mL/min) to constant weight. Equilibrium was assumed to have been achieved if the mass change was <0.001% over 30 min. […] Equilibrium was assumed to have been achieved if the mass change was <0.005% over 30 min. The microbalance was calibrated periodically using a 100 mg standard weight.\nIn order to gain a deeper understanding into the water-BHB interaction, the ‘as is’ BHB was heated in the TGA up to 120° C., cooled to RT and transferred to the sample chamber of the water sorption analyzer. The other relevant details are provided in the Experimental section. There was no water sorption up to 15% RH and then the sample gained ˜3% water at 20% RH (FIG. 10). This is in excellent agreement with the water content in ‘as is’ BHB. […] However, under the experimental conditions in the water sorption analyzer (maximum dwell time of 360 minutes at any RH), equilibrium was not attained. Therefore, when the RH was further increased to 55%, a pronounced weight increase again was observed. […] There were two RH ranges, (0-20% and 35-55%) where hysteresis was observed."}}, "note": "Several values for one entry are separate records, joined by “and”; a condition that tells them apart may be missing. Identical values can stand only once."}
{"smiles": "COc1ccc2[nH]cc(CCNC(C)=O)c2c1", "note": "[melatonin, 5-methoxy-N-acetyltryptamine]", "values": [{"measurement": "solubility at 72 h", "setting": "[1]; 10% HPbCD/5% PEG400/5% PVP K12 solution, in 10% HPbCD/5% PEG400/5% PVP K12, room temperature", "value": "> 43000 µM and > 10000 µg/mL"}, {"measurement": "solubility at 72 h", "setting": "[1]; 20% PVP solution, in 20% PVP, room temperature", "value": "> 43000 µM and > 10000 µg/mL"}, {"measurement": "molar ratio of total drug to free drug", "setting": "[2]", "value": 1.17}, {"measurement": "slope of the phase solubility diagram", "setting": "[2]", "value": 0.030}, {"measurement": "solubility thermodynamic at 72 h", "setting": "[2]; 25 °C, water, thermodynamic from solid", "value": "~8", "unit": "mM"}]}
{"smiles": "CC(O)COC[C@H]1O[C@@H]2O[C@H]3[C@H](O)[C@@H](O)[C@@H](O[C@H]4[C@H](O)[C@@H](O)[C@@H](O[C@H]5[C@H](O)[C@@H](O)[C@@H](O[C@H]6[C@H](O)[C@@H](O)[C@@H](O[C@H]7[C@H](O)[C@@H](O)[C@@H](O[C@H]8[C@H](O)[C@@H](O)[C@@H](O[C@H]1[C@H](O)[C@H]2O)O[C@@H]8COCC(C)O)O[C@@H]7COCC(C)O)O[C@@H]6COCC(C)O)O[C@@H]5COCC(C)O)O[C@@H]4COCC(C)O)O[C@@H]3COCC(C)O", "note": "(stereo partly drawn) [HPbCD, Hydroxypropyl-beta-cyclodextrin]", "values": [{"measurement": "solubility", "setting": "[3]", "value": "exceeds 600 mg/ml"}]}
{"smiles": "C[C@@H](O)CC(=O)O", "note": "[BHB, D-β-hydroxybutyrate]", "values": [{"measurement": "water gain (water sorption)", "setting": "[4]; at 20% RH, BHB previously heated to 120° C.", "value": "~3", "unit": "%"}, {"measurement": "increase in weight (water sorption, deliquescence)", "setting": "[4]; at 50% RH", "value": "~40", "unit": "%"}]}
